What all share (assay): NCI-60 cell line screen, 48 h
Assay [1] concerns ACHN renal.
Assay [2] has as its system CAKI-1 renal.
Assay [3] relates to HCC-2998 colon.
Assay [4] deals with KM12 colon.
Assay [5] has as its system LOX IMVI melanoma.
In assay [6] the test system is M14 melanoma.
The test system of assay [7] is MOLT-4 leukemia.
The test system of assay [8] is NCI-H522 lung.
Assay [9] relates to TK-10 renal.

Values joined by “and” are separate entries in the source; they are usually repeats but may differ in a detail not shown here. Equal entries are not always repeated.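 These data come from cells grown in 96-well plates and exposed to compound for 48 hours at five concentrations. Here, GI50 denotes the concentration required for 50% inhibition of growth. TGI: total growth inhibition.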 A value given as a limit tells only on which side of the number the result lay.

This note sets out measurements from PubChem BioAssay (NCI).

For `CC(C)(C)OC(=O)NC1CCC[C@H]1O` (some centres not stated), the TGI in assay [1], in assay [2], in assay [3], in assay [4], in assay [5] and in [6] was above 100 µM each time. In addition, the TGI in [7], in assay [8] and in assay [9] was above 100 µM in each case.

`Cc1nc(-c2nc(C)c(C(=O)NN(C)C)s2)sc1C(=O)NN(C)C`: the TGI in assay [1] is above 100 µM; in assay [2] it was above 100 µM; in assay [3], above 100 µM; in assay [4], above 100 µM; in assay [5] it was 48.9 µM; in assay [6], above 100 µM. The TGI in assay [7], in assay [8] and in assay [9] was above 100 µM in each case.

For the compound `CCc1ccc(Nc2cc(=O)[nH]c(=S)n2C)cc1`, the TGI in assay [2], in assay [4], in [5], in assay [6], in assay [7] and in assay [8] was above 100 µM in each case. For the same compound, the TGI in assay [9] is above 100 µM.

On to `CC(=O)OC1C/C(C)=C/CCC(C)/C=C/C2(C)CCC(C(C)(C)O)C12` (configuration not stated), for which the TGI in assay [1], in assay [2], in [3], in assay [4], in [5] and in assay [6] was above 100 µM in each case. For the same compound, the TGI in assay [7] and in assay [9] was above 100 µM throughout.

For the compound `CC(=O)Nc1ccccc1-c1cnc2ccccc2n1`, the TGI in [1], in [2], in assay [3], in assay [4], in assay [5] and in assay [6] was above 100 µM each time. Also, the TGI in assay [7], in assay [8] and in assay [9] was above 100 µM throughout.

As for `COC(=O)c1c2c(c(-c3ccccc3)c3c1-c1nc(Cl)ccc1CC3)CCc1ccc(Cl)nc1-2`, the TGI in [1], in [2], in assay [3], in assay [4], in assay [5] and in assay [6] was above 100 µM in each case. Further, the TGI in assay [7], in assay [8] and in assay [9] was above 100 µM each time.

In the case of `CC(=O)OCC1OC(n2c(=O)n(-c3ccccc3)c(=O)c3cc(Br)cc(Br)c32)C(OC(C)=O)C(OC(C)=O)C1OC(C)=O` (configuration not stated), the TGI in assay [1], in assay [2], in assay [3], in assay [4], in assay [5] and in [6] was above 100 µM in each case. For the same compound, the TGI in assay [7], in [8] and in [9] was above 100 µM in each case.

On to `CCOC(=O)C(=Cc1cc(OC)ccc1OC)C(=O)OCC`, for which the TGI in assay [1] was determined as 31.8 µM; in assay [2], 28.1 µM; in assay [3] it was 34.8 µM; in assay [4], 19.9 µM; in [5] it was 19.5 µM; in [6], 24.2 µM. Further, the results for the TGI in [7] and in [8] were 37.9 µM and 14.4 µM, respectively.

For the compound `Nc1nc(N)c(N=O)c(Nc2ccc(I)cc2)n1`, the TGI in assay [1] was above 100 µM; in assay [3], 88.2 µM; in assay [4] it was above 100 µM; in assay [5], 51.6 µM; in [6] it was 56.6 µM; in [7], 65.9 µM. Besides, the TGI worked out at 29.9 µM in assay [8] and 62.1 µM in assay [9].

As for `COc1ccc(/C=C2\SC(c3ccc(OC)cc3)N(NC(=O)Cc3ccccc3)C2=O)cc1` (configuration not stated), the TGI in assay [1], in assay [2], in [4], in assay [5], in assay [6] and in [7] was above 100 µM each time. The TGI in [8] and in [9] was above 100 µM throughout.

As to `N#CCN1CCOCCOCCN(CC#N)CCOCCOCC1`, the TGI in assay [1], in [2], in assay [3], in assay [5], in [6] and in assay [7] was above 100 µM each time. Further, the TGI in assay [9] is above 100 µM.

Turning to `COc1cc([C@@H]2c3cc4c(cc3[C@@H](NCc3ccccc3)C3COC(=O)[C@@H]32)OCO4)cc(OC)c1O` (some centres not stated), the TGI in [1] came out at 5.92 µM; in assay [2], 14.5 µM; in [3], 33 µM; in assay [4], 49.3 µM; in [5] it was 25.9 µM; in [6], 36.6 µM. Also, the TGI in assay [7] is 13 µM; in [9] it was above 61.7 µM.

`Nc1ncnc2c(C3OC(CO)C(O)C3O)scc12` (configuration not stated): the GI50 is 0.127 µM in [1], 0.0233 µM in assay [5], 0.0989 µM in assay [7] and 0.0186 µM in assay [9]. Moreover, the TGI in assay [1] is 1.9 µM and 3.66 µM; in assay [3] it was 0.121 µM and 0.277 µM; in assay [4] it was 0.026 µM; in assay [5] it was 1.49 µM and 2 µM; in assay [6], 0.217 µM and 0.277 µM; in assay [7] it was 1.99 µM and 1.9 µM. Besides, the TGI in assay [8] is 0.242 µM and 0.0939 µM; in [9], 4.01 µM and 4.24 µM.

Regarding `CCOC(=O)C(Cc1ccccc1)NC(=O)OC(C)(C)C` (configuration not stated), the TGI in [1], in assay [3], in [4], in assay [5], in assay [6] and in [7] was above 100 µM throughout. In assay [9], this compound yielded a TGI above 100 µM.

Consider `Cc1c(C(=O)/C=C/c2ccccc2Cl)[n+](=O)c2ccccc2n1[O-]`, for which the TGI amounted to 31.9 µM in assay [1]; 10.6 µM in [2]; 27.3 µM in [4]; 29 µM in assay [6]; 42 µM in [7]; 23.3 µM in assay [8].

`NCCCC1NC(=O)/C(=C(O)/C=C/C2CCC[C@@H]2CC2SCCS2)C1=O` (some centres not stated): the TGI in assay [1], in [3], in [4], in [5], in assay [6] and in assay [7] was above 100 µM in each case. The results for the TGI in assay [8] and in assay [9] were 98.4 µM and above 100 µM, respectively.
